In US10584117B2, “1,3,4-oxadiazole amide derivative compound as histone deacetylase 6 inhibitor, and pharmaceutical composition containing same” (Chong Kun Dang Pharmaceutical Corp., priority 2015, dated 2020):

Molecular target: T1, human recombinant HDAC6 (Homo sapiens, UniProt Q9UBN7)
T1 construct: purchased Calbiochem 382180
T1 sequence (Q9UBN7 1-1215): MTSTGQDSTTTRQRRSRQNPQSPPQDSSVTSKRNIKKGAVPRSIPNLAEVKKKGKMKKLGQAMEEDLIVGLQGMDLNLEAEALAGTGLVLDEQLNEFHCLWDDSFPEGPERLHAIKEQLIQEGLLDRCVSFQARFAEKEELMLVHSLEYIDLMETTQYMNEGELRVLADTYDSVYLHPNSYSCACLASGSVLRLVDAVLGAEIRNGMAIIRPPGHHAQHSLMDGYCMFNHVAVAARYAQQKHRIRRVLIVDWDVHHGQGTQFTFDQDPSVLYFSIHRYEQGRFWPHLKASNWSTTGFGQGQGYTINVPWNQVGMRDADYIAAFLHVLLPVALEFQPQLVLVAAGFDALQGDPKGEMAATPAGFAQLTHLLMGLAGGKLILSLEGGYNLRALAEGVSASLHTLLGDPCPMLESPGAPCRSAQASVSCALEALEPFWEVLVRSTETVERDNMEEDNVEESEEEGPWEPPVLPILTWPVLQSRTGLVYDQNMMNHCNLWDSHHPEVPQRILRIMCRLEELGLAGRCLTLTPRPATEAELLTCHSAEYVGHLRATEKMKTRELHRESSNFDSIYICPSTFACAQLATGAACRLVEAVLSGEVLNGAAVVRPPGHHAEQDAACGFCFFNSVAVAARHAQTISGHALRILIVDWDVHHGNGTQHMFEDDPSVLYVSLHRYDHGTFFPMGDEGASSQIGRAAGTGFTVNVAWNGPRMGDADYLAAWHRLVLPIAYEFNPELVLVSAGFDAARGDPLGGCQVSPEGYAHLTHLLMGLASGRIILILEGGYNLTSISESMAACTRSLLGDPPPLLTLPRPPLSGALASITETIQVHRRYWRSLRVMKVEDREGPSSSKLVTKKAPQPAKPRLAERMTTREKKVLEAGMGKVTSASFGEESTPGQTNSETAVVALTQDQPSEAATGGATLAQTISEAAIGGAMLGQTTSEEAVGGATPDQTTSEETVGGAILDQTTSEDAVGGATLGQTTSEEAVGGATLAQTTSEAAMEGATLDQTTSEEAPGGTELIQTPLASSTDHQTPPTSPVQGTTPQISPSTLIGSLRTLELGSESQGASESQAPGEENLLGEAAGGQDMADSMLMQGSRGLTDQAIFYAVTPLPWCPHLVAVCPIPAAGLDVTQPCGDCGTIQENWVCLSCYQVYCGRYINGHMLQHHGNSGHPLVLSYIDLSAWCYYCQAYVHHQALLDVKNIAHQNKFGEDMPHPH
Test: HDAC enzyme activity inhibition assay (HDAC6, fluorimetric kit)
Type: biochemical
Conditions: for HDAC6 selectivity (fold): HDAC6 versus HDAC1; for IC50: same protocol as the HDAC1 test
Experimental: In order to examine the HDAC6 selectivity of the compounds of formula I of the present invention by HDAC1 and HDAC6 enzymatic activity inhibition assays, an experiment was performed using a conventional substance as a control. HDAC enzyme activity was measured using a HDAC Fluorimetric Drug Discovery Kit (BML-AK511, 516) from Enzo Life Science. For the HDAC1 enzyme activity test, human recombinant HDAC1 (BML-SE456) was used as an enzyme source, and Fluor de Lys®-“SIRT1 (BNL-KI177) was used as a substrate. A 5-fold dilution of the compound was seeded into a 96-well plate, and then 0.3 μg of the enzyme and 10 μM of the substrate were added to each well of the plate and allowed to react at 30° C. for 60 minutes. Then, Fluor de Lys®-Developer II (BML-KI176) was added thereto and allowed to react for 30 minutes, after which the fluorescence value (Ex 360, Em 460) was measured using a multi-plate reader (Flexstation 3, Molecular Device). The HDAC6 enzyme was tested using human recombinant HDAC6 (382180) from Calbiochem, according to the same protocol as the HDAC1 enzyme activity test method. Based on the resulting values, each IC50 value was calculated using GraphPad Prism4.0 program.

Row | SMILES | HDAC6 selectivity (fold) | IC50
1 | O=C(C1CCS(=O)(=O)CC1)N(Cc1ccc(-c2nnc(C(F)(F)F)o2)cc1F)c1ccc(F)c(Cl)c1 [Compound 11602, N-(3-chloro-4-fluorophenyl)-N-(2-fluoro-4-(5-(trifluoromethyl)-1,3,4-oxadiazol-2-yl)benzyl)tetrahydro-2H-thiopyran-4-carboxamide 1,1-dioxide] | 263 fold | 380 nM
2 | CC(C)N1CCC(C(=O)N(Cc2ccc(-c3nnc(C(F)(F)F)o3)cc2)c2ccccc2)CC1 [Compound 11143, 1-isopropyl-N-phenyl-N-(4-(5-(trifluoromethyl)-1,3,4-oxadiazol-2-yl)benzyl)piperidine-4-carboxamide] | 452 fold | 221 nM
3 | Cl.O=C(C1CNC1)N(Cc1ccc(-c2nnc(C(F)(F)F)o2)cc1)c1ccccc1 [Compound 11136, N-phenyl-N-(4-(5-(trifluoromethyl)-1,3,4-oxadiazol-2-yl)benzyl)azetidine-3-carboxamide hydrochloride] | 493 fold | 203 nM
4 | CN1CCC(C(=O)N(Cc2ccc(-c3nnc(C(F)(F)F)o3)cc2)c2ccccc2)CC1 [Compound 11140, 1-methyl-N-phenyl-N-(4-(5-(trifluoromethyl)-1,3,4-oxadiazol-2-yl)benzyl)piperidine-4-carboxamide] | 478 fold | 209 nM
5 | CCN1CC(C(=O)N(Cc2ccc(-c3nnc(C(F)(F)F)o3)cc2)c2ccccc2)C1 [Compound 11139, 1-ethyl-N-phenyl-N-(4-(5-(trifluoromethyl)-1,3,4-oxadiazol-2-yl)benzyl)azetidine-3-carboxamide] | 775 fold | 129 nM
6 | O=C(C1CCN(C2COC2)CC1)N(Cc1ccc(-c2nnc(C(F)(F)F)o2)cc1F)c1ccccc1 [Compound 11621, N-(2-fluoro-4-(5-(trifluoromethyl)-1,3,4-oxadiazol-2-yl)benzyl)-1-(oxetan-3-yl)-N-phenylpiperidine-4-carboxamide] | 358 fold | 279 nM
7 | CC(C)N1CC(C(=O)N(Cc2ccc(-c3nnc(C(F)(F)F)o3)cc2)c2ccccc2)C1 [Compound 11142, 1-isopropyl-N-phenyl-N-(4-(5-(trifluoromethyl)-1,3,4-oxadiazol-2-yl)benzyl)azetidine-3-carboxamide] | 303 fold | 330 nM
8 | CC(C)C(=O)N1CCC(C(=O)N(Cc2ccc(-c3nnc(C(F)F)o3)cc2F)c2ccccc2)CC1 [Compound 11213, N-(4-(5-(difluoromethyl)-1,3,4-oxadiazol-2-yl)-2-fluorobenzyl)-1-isobutyryl-N-phenylpiperidine-4-carboxamide] | 781 fold | 128 nM
9 | CC(=O)N1CCC(C(=O)N(Cc2ccc(-c3nnc(C(F)(F)F)o3)cc2)c2ccccc2)CC1 [Compound 11161, 1-acetyl-N-phenyl-N-(4-(5-(trifluoromethyl)-1,3,4-oxadiazol-2-yl)benzyl)piperidine-4-carboxamide] | 204 fold | 489 nM
10 | O=C(C1CN(C(=O)C(F)(F)F)C1)N(Cc1ccc(-c2nnc(C(F)(F)F)o2)cc1)c1ccccc1 [Compound 11159, N-phenyl-1-(2,2,2-trifluoroacetyl)-N-(4-(5-(trifluoromethyl)-1,3,4-oxadiazol-2-yl)benzyl)azetidine-3-carboxamide] | 787 fold | 127 nM

Compounds with a lower IC50, results first:

Row | HDAC6 selectivity (fold) | IC50 | SMILES
11 | 1124 fold | 89 nM | CCC(=O)N1CCC(C(=O)N(Cc2ccc(-c3nnc(C(F)F)o3)cc2F)c2ccccc2)CC1 [Compound 11212, N-(4-(5-(difluoromethyl)-1,3,4-oxadiazol-2-yl)-2-fluorobenzyl)-N-phenyl-1-propionylpiperidine-4-carboxamide]
12 | 1235 fold | 81 nM | CCCCN1CC(C(=O)N(Cc2ccc(-c3nnc(C(F)F)o3)cc2F)c2cccc(F)c2)C1 [Compound 11328, 1-butyl-N-(4-(5-(difluoromethyl)-1,3,4-oxadiazol-2-yl)-2-fluorobenzyl)-N-(3-fluorophenyl)azetidine-3-carboxamide]
13 | 1370 fold | 73 nM | O=C(CN1CCCC1)N(Cc1ccc(-c2nnc(C(F)F)o2)cc1F)c1ccc(F)c(Cl)c1 [Compound 11534, N-(3-chloro-4-fluorophenyl)-N-(4-(5-(difluoromethyl)-1,3,4-oxadiazol-2-yl)-2-fluorobenzyl)-2-(pyrolidin-1-yl)acetamide]
14 | 1538 fold | 65 nM | CCC(=O)N1CC(C(=O)N(Cc2ccc(-c3nnc(C(F)(F)F)o3)cc2F)c2ccccc2)C1 [Compound 11235, N-(2-fluoro-4-(5-(trifluoromethyl)-1,3,4-oxadiazol-2-yl)benzyl)-N-phenyl-1-propionylazetidine-3-carboxamide]
15 | 1587 fold | 63 nM | O=C(C1CN(C(=O)C(F)(F)F)C1)N(Cc1ccc(-c2nnc(C(F)F)o2)cc1F)c1ccccc1 [Compound 11244, N-(4-(5-(difluoromethyl)-1,3,4-oxadiazol-2-yl)-2-fluorobenzyl)-N-phenyl-1-(2,2,2-trifluoroacetyl)azetidine-3-carboxamide]
16 | 1754 fold | 57 nM | CCN1CC(C(=O)N(Cc2ccc(-c3nnc(C(F)F)o3)cc2F)c2cccc(F)c2)C1 [Compound 11326, N-(4-(5-(difluoromethyl)-1,3,4-oxadiazol-2-yl)-2-fluorobenzyl)-1-ethyl-N-(3-fluorophenyl)azetidine-3-carboxamide]
17 | 1786 fold | 56 nM | CCC(=O)N1CC(C(=O)N(Cc2ccc(-c3nnc(C(F)F)o3)cc2F)c2cccc(F)c2)C1 [Compound 11331, N-(4-(5-(difluoromethyl)-1,3,4-oxadiazol-2-yl)-2-fluorobenzyl)-N-(3-fluorophenyl)-1-propionylazetidine-3-carboxamide]
18 | 2000 fold | 50 nM | O=C(c1ccncc1)N(Cc1ccc(-c2nnc(C(F)F)o2)cc1F)c1ccccc1 [Compound 11110, N-(4-(5-(difluoromethyl)-1,3,4-oxadiazol-2-yl)-2-fluorobenzyl)-N-phenylisonicotinamide]
19 | 2041 fold | 49 nM | CC(=O)N(Cc1ccc(-c2nnc(C(F)F)o2)cc1F)c1cccc(F)c1 [Compound 11339, N-(4-(5-(difluoromethyl)-1,3,4-oxadiazol-2-yl)-2-fluorobenzyl)-N-(3-fluorophenyl)acetamide]
20 | 2381 fold | 42 nM | CS(=O)(=O)N1CC(C(=O)N(Cc2ccc(-c3nnc(C(F)(F)F)o3)cc2F)c2ccccc2)C1 [Compound 11237, N-(2-fluoro-4-(5-(trifluoromethyl)-1,3,4-oxadiazol-2-yl)benzyl)-1-(methanesulfonyl)-N-phenylazetidine-3-carboxamide]
21 | 2500 fold | 40 nM | CN1CCC(C(=O)N(Cc2ccc(-c3nnc(C(F)F)o3)cn2)c2cccc(F)c2)CC1 [Compound 11418, N-((5-(5-(difluoromethyl)-1,3,4-oxadiazol-2-yl)pyridin-2-yl)methyl)-N-(3-fluorophenyl)-1-methylpiperidine-4-carboxamide]
22 | 2941 fold | 34 nM | O=C(c1ccncc1)N(Cc1ccc(-c2nnc(C(F)(F)F)o2)cn1)c1cccc(F)c1 [Compound 11359, N-(3-fluorophenyl)-N-((5-(5-(trifluoromethyl)-1,3,4-oxadiazol-2-yl)pyridin-2-yl)methyl)isonicotinamide]
